Legend:
[1] = system: cat fleas (Ctenocephalides felis), CO Fleas; test: In vivo cat flea contact assay, CO fleas; details: Ctenocephalides felis, topical; contact with treated filter disk in vial, about 24-30 hours; mM = concentration of the DMSO solution, about 1 μL applied; read-out: LD50 (mM), CO Fleas
Protocol: This example describes an in vivo assay to screen compounds for their ability to kill cat fleas via contact.
Test compounds were dissolved in dimethylsulfoxide (DMSO) at concentrations ranging from about 0.05 mM to about 100 mM. About 1 μL of dissolved test compound was dispensed onto a 6 mm (diameter) GF/C filter disk (filter material available from Whatman Inc., Clifton, N.J.) in the bottom of a 4 mL screw-top glass vial and allowed to air dry 24-48 hours. Positive control vials were prepared in the same manner except that no test compounds were dissolved in the DMSO. About 20 newly emerged cat fleas (Ctenocephalides felis) were sedated by refrigeration at 0-4° C. and transferred to each vial. Each vial was sealed with a thin, perforated Teflon™ septum secured by an open top screw cap and held vertically in the dark. After about 24-30 hours, the healthy, moribund, and dead cat fleas in each vial were counted. The percentage of dead cat fleas in each vial was then calculated using the formula M=100(D−(FC/100))/(F−(FC/100)), in which M is the percentage of dead cat fleas due to the addition of the test compound, D is the number of dead cat fleas in the test vial, F is the total number of cat fleas in the test vial, and C is the percentage of dead cat fleas in the control vials.

[2] = biological target: Mouse Brain GABA Receptors; test: In vitro assay of binding to mouse brain GABA receptors (3H-EBOB displacement, mouse brain membranes); details: displacement of 5.2 nM 3H-EBOB, about 45 min at about 24° C.
Protocol: Mouse brains were obtained from carbon dioxide-asphyxiated Swiss-Webster mice, washed with phosphate-buffered saline, and used either fresh or after storage at −80° C. for up to 10 months. Unless specified, all preparation steps were performed at 0-4° C. For each preparation, 20 brains were suspended in about 40 mL of 0.32 M sucrose and homogenized for about 2 minutes, using a Tissumizer™ homogenizer equipped with a SDT-100EN probe (available from Tekmar-Dohrmann, Cincinnati, Ohio) running at 50% of its maximum speed. The extract was centrifuged for about 5 min at about 1000×g to pellet intact brain tissue. The supernatant was retained and the pellet washed with an additional 40 mL of 0.32 M sucrose and centrifuged at 1000×g for about 5 minutes. The 1000×g supernatants were combined and centrifuged at about 10,000×g for about 20 min to pellet membranes. The 10,000×g supernatant was discarded and the pellet was resuspended in about 20 mL of water containing 1 mM EDTA. The sample was dialyzed two times for about 3 hours each against about 3 L of water. The sample was then centrifuged at about 25,000×g for about 30 min to pellet the membranes. After centrifugation, the supernatant was discarded and the wet pellet recovered. The protein concentration of the pellet was determined by the Bio-Rad Protein Assay (available from Bio-Rad Laboratories, Hercules, Calif.) using bovine serum albumin as a standard. The membranes were aliquoted and stored at −80° C. for up to 6 months before use.
Mouse brain membranes were prepared as described above from dissected mouse brains. Test compounds were dissolved in dimethylsulfoxide (DMSO) at concentrations ranging from about 2 nM to about 100 mM. About 1 μL of a dissolved test compound was dispensed into a well of a 96-well polystyrene plate. About 100 μL of ice cold assay buffer (10 mM phosphate, 300 mM NaCl, pH 7.5) containing 5.2 nM 4′-Ethynyl-4-n-[2,3-^3H2]propylbicycloorthobenzoate (^3H-EBOB, 38 Ci/mmol, available from NEN Life Science Products, Boston, Mass.) was added to the well, followed by about 100 μL of ice cold assay buffer containing about 0.25-0.5 mg/mL mouse brain membranes. Control wells were prepared the same way except that the mouse brain membranes were omitted from the “negative” wells, and the test compounds were omitted from the “positive” wells. The samples were incubated for about 45 min at about 24° C. and then filtered on a 0.1% (w/v) polyethylenimine-soaked glass fiber Filtermat A (available from EG&G Wallac Inc., Gaithersburg, Md.) followed by four 100 mL rinses of cold assay buffer using a Harvester 96® cell harvester (available from Tomtec, Orange, Conn.). The filtermat was air dried and radioactivity bound to the filtermat was detected with either a 1450 MicroBeta® Trilux scintillation counter (available from EG&G Wallac Inc.) or a Topcount NXT™ scintillation counter (available from Packard Instrument Co., Meriden, Conn.) using standard methods.
Specific binding was considered to be the difference between total ^3H bound to the mouse brain membranes in the absence of any inhibitors and nonspecific ^3H bound to the mouse brain membranes upon the addition of 5 μM unlabeled EBOB. The average radioactivity contained in the “negative” wells was subtracted from each of the assay wells. […] Compounds that displaced ^3H-EBOB specifically bound to the mouse brain membranes were tested at 24-48 different final concentrations, varying from about 1 nM to about 125 μM, in order to determine the concentration at which 50% of the maximum inhibition due to the addition of that compound was observed (IC50). […]

Housefly GABA receptors = biological target: T1, Housefly GABA receptors (Musca domestica, UniProt Q75NA5); test: In vitro assay of binding to housefly GABA receptors (3H-EBOB displacement, housefly neuronal membranes); details: for Compounds with the most activity (housefly 3H-EBOB binding): housefly neuronal membranes
T1 sequence (Q75NA5 30-576): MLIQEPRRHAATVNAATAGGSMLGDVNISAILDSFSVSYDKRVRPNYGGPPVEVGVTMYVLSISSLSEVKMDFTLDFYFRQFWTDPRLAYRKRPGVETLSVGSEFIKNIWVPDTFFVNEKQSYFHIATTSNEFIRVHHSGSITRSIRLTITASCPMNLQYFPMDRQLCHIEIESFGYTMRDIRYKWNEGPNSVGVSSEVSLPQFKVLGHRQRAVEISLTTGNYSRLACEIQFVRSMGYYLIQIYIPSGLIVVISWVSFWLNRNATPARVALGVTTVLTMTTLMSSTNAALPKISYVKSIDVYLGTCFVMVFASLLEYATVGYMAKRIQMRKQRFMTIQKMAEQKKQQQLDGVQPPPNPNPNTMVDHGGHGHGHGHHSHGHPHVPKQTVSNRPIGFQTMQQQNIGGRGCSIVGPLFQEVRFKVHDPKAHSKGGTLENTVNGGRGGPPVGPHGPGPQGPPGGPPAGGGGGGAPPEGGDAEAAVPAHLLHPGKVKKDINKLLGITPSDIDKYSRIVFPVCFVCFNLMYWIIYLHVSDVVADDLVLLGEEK
Protocol: Newly emerged houseflies (Musca domestica, available from Rincon-Vitova Insectaries, Inc., Ventura, Calif.) were sedated with carbon dioxide gas, collected in 50 mL polypropylene conical tubes, and immediately frozen by submersion in liquid nitrogen. Unless specified, all of the following work was performed at 0-4° C. After removal from liquid nitrogen, the tubes of frozen houseflies were shaken vigorously by hand to decapitate the houseflies. […] Contaminating wings were removed by holding a vacuum nozzle approximately 4 cm above the heads, and contaminating legs were separated from the heads by passage through a #15 mesh screen. All remaining debris were removed from the pool of heads using forceps. The purified heads were collected in 50 mL polypropylene conical tubes and stored in liquid nitrogen until processed further.
About 13 g of purified housefly heads were suspended in about 65 mL of 10% sucrose buffer (10% sucrose (w/w) in 10 mM Tris, pH 7.5). The heads were homogenized for about 1 minute, using a Tissumizer™ homogenizer equipped with a SDT-100EN probe (available from Tekmar-Dohrmann, Cincinnati, Ohio) running at 70% of its maximum speed. The extract was further homogenized by about 5 passes through a 40 mL Dounce tissue grinder. The extract was then centrifuged at about 500×g for about 5 minutes to pellet large debris. The supernatant was collected; the pellet was washed with an additional 65 mL of 10% sucrose buffer and centrifuged at 500×g for about 5 minutes. The second supernatant was collected and combined with the first supernatant, and the pool was filtered through a 100μ CellMicroSieve™ mesh to remove residual debris (available from BioDesign of New York, Carmel, N.Y.).
Neuronal membranes containing active GABA receptors were collected via sucrose density centrifugation by the following method. About 8 mL of 35% sucrose buffer (35% sucrose (w/w) in 10 mM Tris, pH 7.5), were dispensed into each of six 38 mL ultracentrifuge tubes. These layers were overlaid with about 8 mL of 20% sucrose buffer (20% sucrose (w/w) in 10 mM Tris, pH 7.5), and finally overlaid with about 20 mL of filtered extract supernatant. The tubes were centrifuged at about 120,000×g for about 100 min at 4° C. After centrifugation, the 10% sucrose layer and most of the 20% sucrose layer were removed by aspiration. The membranes at the interface of the 20% sucrose and 35% sucrose layers were collected, pooled, diluted with 10% sucrose buffer, and centrifuged at about 120,000×g for about 40 min at 4° C. After centrifugation, the supernatant was discarded, and the pellets resuspended in about 6.5 mL of assay buffer (10 mM phosphate, 300 mM NaCl, pH 7.5) using a 10 mL Potter-Elvehjem tissue grinder with a Teflon® pestle. Protein concentration was determined by the Bio-Rad Protein Assay (available from Bio-Rad Laboratories, Hercules, Calif.) using bovine serum albumin as a standard. The membranes were aliquoted and stored in liquid nitrogen for up to 2 months before use.
Housefly neuronal membranes were prepared as described above from housefly heads. Test compounds were dissolved in dimethylsulfoxide (DMSO) at concentrations ranging from about 2 nM to about 100 mM. About 1 μL of a dissolved test compound was dispensed into a well of a 96-well polystyrene plate. About 100 μL of ice cold assay buffer (10 mM phosphate, 300 mM NaCl, pH 7.5) containing 5.2 nM 4′-Ethynyl-4-n-[2,3-^3H2]propylbicycloorthobenzoate (^3H-EBOB, 38 Ci/mmol, available from NEN Life Science Products, Boston, Mass.) was added to the well, followed by about 100 μL of ice cold assay buffer containing about 0.5-1.0 mg/mL housefly neuronal membranes. Control wells were prepared the same way except that the housefly neuronal membranes were omitted from the “negative” wells, and the test compounds were omitted from the “positive” wells. […]

Compound | IC50 [2] [nM] | LC50 [1] [mM] | IC50 (Housefly GABA receptors; displacement of 5.2 nM 3H-EBOB, housefly head neuronal membranes, about 45 min at about 24° C., read-out: IC50 (nM), Fly Head) [nM] | Compounds with the most activity (housefly 3H-EBOB binding) (Housefly GABA receptors)
CC1(O)c2cn(-c3c(Cl)cc(C(F)(F)F)cc3Cl)nc2CC1(F)F (stereo not shown) [Compound 93, 2-[2,6-Dichloro-4-(trifluoromethyl)phenyl]-5,5-difluoro-4-methyl-2,4,5,6-tetrahydrocyclopenta[c]pyrazol-4-ol] | 2300 | – | 100 | –
CC1CCc2nn(-c3c(Cl)cc(C(F)(F)F)cc3Cl)cc21 (racemic) [Compound 42, 2-[2,6-Dichloro-4-(trifluoromethyl)phenyl]-4-methyl-2,4,5,6-tetrahydrocyclopenta[c]pyrazole] | – | – | – | most activity
FC(F)(F)c1cc(Cl)c(-n2cc3sccc3n2)c(Cl)c1 [Compound 22, 2-[2,6-Dichloro-4-(trifluoromethyl)phenyl]-2H-thieno[3,2-c]pyrazole] | – | – | – | most activity
Nc1c2c(nn1-c1c(Cl)cc(C(F)(F)F)cc1Cl)CSC2 [Compound 1, 2-[2,6-Dichloro-4-(trifluoromethyl)phenyl]-4,6-dihydrothieno-[3,4-c]pyrazole-3-ylamine] | – | – | – | most activity
FC(F)(F)c1cc(Cl)c(-n2cc3c(n2)CCSC3)c(Cl)c1 [Compound 10, 2-[2,6-Dichloro-4-(trifluoromethyl)phenyl]-2H,4H,6H,7H-thiano[4,3-c]pyrazole] | 3800 | – | – | most activity
CC1(C)CCc2cn(-c3c(Cl)cc(C(F)(F)F)cc3Cl)nc21 [Compound 12, 2-[2,6-Dichloro-4-(trifluoromethyl)phenyl]-6,6-dimethyl-2,4,5,6-tetrahydrocyclopenta[c]pyrazole] | 30000 | – | – | most activity

Now from value to compound, other results behind:

IC50 [2] [nM] | Compound | LC50 [1] [mM] | IC50 (Housefly GABA receptors; displacement of 5.2 nM 3H-EBOB, housefly head neuronal membranes, about 45 min at about 24° C., read-out: IC50 (nM), Fly Head) [nM] | Compounds with the most activity (housefly 3H-EBOB binding) (Housefly GABA receptors)
60 | FC(F)(F)c1cc(Cl)c(-n2cc3c(n2)CC(F)(F)C3(F)F)c(Cl)c1 [Compound 92, 2-[2,6-Dichloro-4-(trifluoromethyl)phenyl]-4,4,5,5-tetrafluoro-2,4,5,6-tetrahydrocyclopenta[c]pyrazole] | < 0.5 | – | –
25000 | CC1(O)c2cn(-c3c(Cl)cc(C(F)(F)F)cc3Cl)nc2CC1F (stereo not shown) [Compound 57, 2-[2,6-Dichloro-4-(trifluoromethyl)phenyl]-5-fluoro-4-methyl-2,4,5,6-tetrahydrocyclopenta[c]pyrazol-4-ol] | 3.8 | – | –
25000 | O=S(=O)(C1CCc2nn(-c3c(Cl)cc(C(F)(F)F)cc3Cl)cc21)C(F)(F)F (stereo not shown) [Compound 67] | – | – | –
1000 | FC1Cc2nn(-c3c(Cl)cc(C(F)(F)F)cc3Cl)cc2C1(F)F (stereo not shown) [Compound 56, 2-[2,6-Dichloro-4-(trifluoromethyl)phenyl]-4,4,5-trifluoro-2,4,5,6-tetrahydrocyclopenta[c]pyrazole] | 1 | – | –
1000 | FC(F)(F)c1cc(Cl)c(-n2cc3c(n2)CC=C3)c(Cl)c1 [Compound 63, 2-[2,6-Dichloro-4-(trifluoromethyl)phenyl]-6-hydrocyclopenta[1,2-c]pyrazole] | – | – | –
1000 | CSC1CCc2nn(-c3c(Cl)cc(C(F)(F)F)cc3Cl)cc21 (stereo not shown) [Compound 68, 2-[2,6-Dichloro-4-(trifluoromethyl)phenyl]-4-methylthio-2,4,5,6-tetrahydrocyclopenta[c]pyrazole] | – | – | –
730 | O=S(=O)(Oc1c2c(nn1-c1c(Cl)cc(C(F)(F)F)cc1Cl)CSC2)c1ccccc1 [Compound 6, 2-[2,6-Dichloro-4-(trifluoromethyl)phenyl]-4,6-dihydrothieno-[3,4-c]pyrazole-3-yl benzenesulfonate] | – | – | –

— patent publication US6545033B1, “Fused 1-(2,6-dichloro-4-trifluoromethylphenyl)-pyrazoles, the synthesis thereof and the use thereof as pesticides” (3-Dimensional Pharmaceuticals, Inc., priority 1999, dated 2003)
